Measurements published in patent US20060166872A1, “Fp receptor antagonists or pgf2 alpha antagonists for treating menorrhagia” (priority 2002, published 2006).
“Also recorded” adds a separate entry of the source.

Tests used:
FP receptor = conditions: cited from earlier work
human endometrium = experiment: Total inositol phosphate (InsP) assay in human endometrium; type: cell-based
Procedure: (§1) PGF2α stimulation of total InsP production was as described (21). Briefly, tissue samples or Ishikawa cells were incubated with inositol free DMEM containing 1% dialyzed heat-inactivated FCS and 0.5 μCi/well myo-[^3H]inositol (Amersham Pharmacia Biotech) for 48 hours. Medium was removed, and cells washed with 1 ml buffer (140 mM NaCl, 20 mM HEPES, 4 mM KCl, 8 mM glucose, 1 mM MgCl2, 1 mM CaCl2, 1 mg/ml bovine serum albumin) containing 10 mM LiCl. Cells were then incubated for 1 hour at 37° C. in 1 ml buffer with or without inhibitors. Following incubation agonist was added at the required concentration and cells incubated for 1 hour. Reactions were terminated by the removal of agonist and the addition of 500 μl ice cold 10 mM formic acid, which was incubated for 30 minutes at 4° C. Total [^3H] inositol phosphates was separated from the formic acid cell extracts on AG 1-X8 anion exchange resin (Bio-Rad) and eluted with a 1 M ammonium formate/0.1 M formic acid solution. The associated radioactivity was determined by liquid scintillation counting and plotted relative to protein concentrations determined using the modified Lowry method.

Ishikawa cells [1] = experiment: Proliferation assay, BrdU incorporation ELISA; type: cell-based, human; conditions: for basal proliferation (BrdU incorporation): no PGF2α
Procedure: Proliferation of Ishikawa cells was determined using a BrdU incorporation ELISA (Roche Diagnostics GmbH, Mannheim, Germany). Briefly, Ishikawa cells were seeded at 5×10^3 cells per well in a 96-well plate and allowed to adhere overnight. Cells were next starved for 24 hr with indomethacin 1.5 μg/ml before 24 h PGF2α treatment (1 nM-1 μM) in serum-free medium containing indomethacin. Inhibitors were added to cells for 60 min before PGF2α with the control well receiving the same concentration of vehicle. Following 24 h treatment, cells were labelled with BrdU for 4 h, then fixed and assayed for BrdU incorporation using standard immunohistochemical techniques. Results were plotted as percentages of untreated cells.

PGES = target: T1, PGES (Homo sapiens, UniProt O14684); conditions: read-out: IC50 for inhibition of PGES activity; cited from earlier work
T1 sequence (O14684 1-152): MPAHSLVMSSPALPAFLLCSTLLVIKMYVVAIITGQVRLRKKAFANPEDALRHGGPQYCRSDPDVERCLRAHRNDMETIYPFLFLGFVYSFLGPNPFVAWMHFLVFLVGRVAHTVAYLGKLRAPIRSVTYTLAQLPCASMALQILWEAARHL

Ishikawa cells [2] = experiment: Total inositol phosphate (InsP) assay in Ishikawa cells; type: cell-based, human; conditions: PGF2α 100 nM
Procedure: as §1

Ishikawa cells [3] = experiment: PGF2α-induced ERK phosphorylation in Ishikawa cells; type: cell-based, human; conditions: 100 nM, 10 min
Procedure: PGF2α-induced ERK phosphorylation in Ishikawa cells. PGF2α 100 nM was incubated for 10 and 30 min. U73122 2 μM was pre-incubated for 60 min before treatment with PGF2α.

HCT-8 = HCT-8 human colon adenocarcinoma cell line; cited from earlier work
HT-29 = HT-29 human colon adenocarcinoma cell line; cited from earlier work
[4] = tested on: prostaglandin receptor TP; conditions: 10 μM; cited from earlier work
[5] = target: T2, prostaglandin receptor DP (Homo sapiens, UniProt Q13258); conditions: 10 μM; cited from earlier work
T2 sequence (Q13258 1-359): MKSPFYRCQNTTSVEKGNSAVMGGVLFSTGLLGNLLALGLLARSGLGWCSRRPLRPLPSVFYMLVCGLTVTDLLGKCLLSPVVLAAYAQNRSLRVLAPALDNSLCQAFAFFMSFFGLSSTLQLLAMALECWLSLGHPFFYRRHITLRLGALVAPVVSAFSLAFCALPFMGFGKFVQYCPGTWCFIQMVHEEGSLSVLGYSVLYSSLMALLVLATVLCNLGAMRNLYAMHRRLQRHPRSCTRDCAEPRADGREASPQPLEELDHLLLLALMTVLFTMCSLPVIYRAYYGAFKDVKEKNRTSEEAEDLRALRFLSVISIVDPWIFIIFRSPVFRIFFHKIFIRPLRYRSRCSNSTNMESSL

[6] = target: prostaglandin receptor EP2 (Homo sapiens, UniProt P43116); conditions: 10 μM; cited from earlier work
Sequence of prostaglandin receptor EP2 (P43116 whole entry): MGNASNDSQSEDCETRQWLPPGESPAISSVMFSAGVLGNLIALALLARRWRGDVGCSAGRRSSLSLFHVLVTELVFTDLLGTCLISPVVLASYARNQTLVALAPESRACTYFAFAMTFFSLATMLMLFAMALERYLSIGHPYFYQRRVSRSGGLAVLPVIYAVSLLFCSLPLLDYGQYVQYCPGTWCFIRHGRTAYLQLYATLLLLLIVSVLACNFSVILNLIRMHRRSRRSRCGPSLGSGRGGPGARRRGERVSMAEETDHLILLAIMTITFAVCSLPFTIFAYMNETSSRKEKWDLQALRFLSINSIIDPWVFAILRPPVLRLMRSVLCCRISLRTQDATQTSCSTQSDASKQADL

[7] = target: prostaglandin receptor EP4 (Homo sapiens, UniProt P35408); conditions: 10 μM; cited from earlier work
Sequence of prostaglandin receptor EP4 (P35408 whole entry): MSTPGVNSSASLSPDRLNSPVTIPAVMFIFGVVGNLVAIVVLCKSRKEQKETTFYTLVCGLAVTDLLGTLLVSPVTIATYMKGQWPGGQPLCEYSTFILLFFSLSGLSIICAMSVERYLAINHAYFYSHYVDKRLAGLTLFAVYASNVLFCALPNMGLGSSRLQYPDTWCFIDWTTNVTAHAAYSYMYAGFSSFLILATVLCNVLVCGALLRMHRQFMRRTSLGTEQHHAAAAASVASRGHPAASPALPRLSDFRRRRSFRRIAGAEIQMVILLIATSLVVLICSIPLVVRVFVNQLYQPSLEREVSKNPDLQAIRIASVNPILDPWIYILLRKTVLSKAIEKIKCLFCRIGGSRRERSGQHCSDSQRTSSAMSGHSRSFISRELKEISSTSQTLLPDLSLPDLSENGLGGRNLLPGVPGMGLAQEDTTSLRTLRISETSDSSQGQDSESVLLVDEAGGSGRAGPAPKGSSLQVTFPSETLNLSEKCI

CCCCNC(=O)NS(=O)(=O)c1ccc(C)cc1 [tolbutamide]
FP (PGF2α) receptor antagonist activity, in words (FP receptor): very weak antagonists

COc1ccc2c(c1)CC[C@@H]1[C@@H]2CC[C@]2(C)[C@@H](NCCCCCCN3C(=O)C=CC3=O)CC[C@@H]12 [U73122]
effect on PGF2α-induced InsP mobilisation (human endometrium; pre-treatment with U73122 2 μM, PGF2α 100 nM): inhibited | basal proliferation (BrdU incorporation) (Ishikawa cells [1]; U73122 2 μM pre-incubation): 93.9±1.9%

CCCCC/C=C\C\C=C/C=C/C=C/[C@@H](SC[C@H](NC(=O)CC[C@H](N)C(=O)O)C(=O)NCC(=O)O)[C@@H](O)CCCC(=O)O [leukotriene C4]
IC50 (PGES): 5 µM

prostaglandin F2α [PGF2α]
concentration giving maximal InsP mobilisation (human endometrium): 100 nM | total InsP production following treatment (human endometrium): concentration-dependent increase | maximum total InsP (Ishikawa cells [2]): 29 cpm/mg protein | increase in phosphorylated ERK intensity compared to native ERK (Ishikawa cells [3]): 6.6±0.7 fold | BrdU incorporation (percentage of untreated cells) (Ishikawa cells [1]; PGF2α 100 nM (maximal), 24 h, Ishikawa cells): 136.3±7.48% | proliferation (HCT-8): lack of proliferation | proliferation (HT-29): lack of proliferation

O=C(O)CCC/C=C\C[C@@H]1[C@@H](/C=C/[C@H](O)C2Cc3ccccc3C2)[C@@H](F)C[C@@H]1O [AL-8810, (5Z, 13E)-(9S,11S,15R)-9,15-dihydroxy-11-fluoro-15-(2-indanyl)-16, 17, 18, 19, 20-pentanor-5,13-prostadienoic acid]
inhibition of functional responses of TP receptor [4]: not to significantly inhibit | inhibition of functional responses of DP receptor [5]: not to significantly inhibit | inhibition of functional responses of EP2 receptor [6]: not to significantly inhibit | inhibition of functional responses of EP4 receptor [7]: not to significantly inhibit | FP (PGF2α) receptor agonist activity, in words (FP receptor): weak partial agonist | FP (PGF2α) receptor antagonist activity, in words (FP receptor): highly selective antagonist; also recorded: micromolar potency

CCCCC(F)[C@H](O)/C=C/[C@H]1CC[C@H](O)[C@@H]1C/C=C\CCCC(=O)O (stereo partly drawn) [AL-3138, 11-deoxy-16-fluoro PGF2α]
FP (PGF2α) receptor agonist activity, in words (FP receptor): weak partial agonist; also recorded: partial agonist of low efficacy | FP (PGF2α) receptor antagonist activity, in words (FP receptor): highly selective antagonist

Cc1ccc(S(=O)(=O)NC(=O)NN2CCCCCC2)cc1 [tolazamide]
FP (PGF2α) receptor antagonist activity, in words (FP receptor): very weak antagonists

CSc1ccc(/C=C2/C(C)=C(CC(=O)O)c3cc(F)ccc32)cc1 [sulindac sulphide]
IC50 (PGES): 80 µM

COc1cccc(-c2cc(=O)c3ccccc3o2)c1N [PD98059]
basal proliferation (BrdU incorporation) (Ishikawa cells [1]; PD98059 50 μM pre-treatment): 84.0±5.8%
